Here are results for 14 compounds from ChEMBL document CHEMBL5291721, “A preclinical secondary pharmacology resource illuminates target-adverse drug reaction associations of marketed drugs” (Nat Commun, 2023).

One test has as its target T1, B2 bradykinin receptor (Homo sapiens, UniProt P30411).
T1 sequence (P30411 whole entry): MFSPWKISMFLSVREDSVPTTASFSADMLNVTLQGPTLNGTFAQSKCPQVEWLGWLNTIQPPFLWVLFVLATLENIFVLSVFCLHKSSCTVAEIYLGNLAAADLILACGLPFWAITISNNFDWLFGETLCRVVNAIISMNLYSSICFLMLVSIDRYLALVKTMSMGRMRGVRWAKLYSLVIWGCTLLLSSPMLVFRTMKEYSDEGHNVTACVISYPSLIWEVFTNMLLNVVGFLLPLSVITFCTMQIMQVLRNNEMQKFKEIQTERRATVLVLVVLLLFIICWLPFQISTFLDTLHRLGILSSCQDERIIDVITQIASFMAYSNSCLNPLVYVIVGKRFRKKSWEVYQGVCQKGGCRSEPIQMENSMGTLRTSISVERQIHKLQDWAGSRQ

The target in test [1] is T2, Type-1 angiotensin II receptor (Homo sapiens, UniProt P30556).
T2 sequence (P30556 whole entry): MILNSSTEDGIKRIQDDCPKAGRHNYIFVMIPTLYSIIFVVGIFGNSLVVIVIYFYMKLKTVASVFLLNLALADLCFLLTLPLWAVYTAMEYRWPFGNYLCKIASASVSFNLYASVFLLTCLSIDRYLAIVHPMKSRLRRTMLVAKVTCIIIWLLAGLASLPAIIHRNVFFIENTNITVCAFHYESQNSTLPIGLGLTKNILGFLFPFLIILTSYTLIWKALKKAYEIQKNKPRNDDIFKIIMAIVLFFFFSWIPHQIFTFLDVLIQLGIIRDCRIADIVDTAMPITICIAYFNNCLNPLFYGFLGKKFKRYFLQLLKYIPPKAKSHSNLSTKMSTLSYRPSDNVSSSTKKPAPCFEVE

The target in test [2] is T3, Alpha-1A adrenergic receptor (Homo sapiens, UniProt P35348).
T3 sequence (P35348 whole entry): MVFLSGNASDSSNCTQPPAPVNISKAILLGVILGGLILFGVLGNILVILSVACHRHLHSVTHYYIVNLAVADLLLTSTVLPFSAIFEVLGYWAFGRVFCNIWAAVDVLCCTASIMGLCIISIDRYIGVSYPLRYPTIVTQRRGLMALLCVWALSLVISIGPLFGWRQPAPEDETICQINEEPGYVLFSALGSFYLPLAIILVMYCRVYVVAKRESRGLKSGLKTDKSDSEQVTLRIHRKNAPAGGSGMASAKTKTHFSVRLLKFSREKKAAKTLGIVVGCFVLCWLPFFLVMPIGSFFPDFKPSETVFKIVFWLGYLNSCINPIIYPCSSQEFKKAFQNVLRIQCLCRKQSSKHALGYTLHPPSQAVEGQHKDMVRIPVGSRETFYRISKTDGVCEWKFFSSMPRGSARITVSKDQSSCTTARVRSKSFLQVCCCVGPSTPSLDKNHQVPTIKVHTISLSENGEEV
Type of test: functional, cell-based.

The target of test [3] is T4, Alpha-2A adrenergic receptor (Homo sapiens, UniProt P08913).
T4 sequence (P08913 whole entry): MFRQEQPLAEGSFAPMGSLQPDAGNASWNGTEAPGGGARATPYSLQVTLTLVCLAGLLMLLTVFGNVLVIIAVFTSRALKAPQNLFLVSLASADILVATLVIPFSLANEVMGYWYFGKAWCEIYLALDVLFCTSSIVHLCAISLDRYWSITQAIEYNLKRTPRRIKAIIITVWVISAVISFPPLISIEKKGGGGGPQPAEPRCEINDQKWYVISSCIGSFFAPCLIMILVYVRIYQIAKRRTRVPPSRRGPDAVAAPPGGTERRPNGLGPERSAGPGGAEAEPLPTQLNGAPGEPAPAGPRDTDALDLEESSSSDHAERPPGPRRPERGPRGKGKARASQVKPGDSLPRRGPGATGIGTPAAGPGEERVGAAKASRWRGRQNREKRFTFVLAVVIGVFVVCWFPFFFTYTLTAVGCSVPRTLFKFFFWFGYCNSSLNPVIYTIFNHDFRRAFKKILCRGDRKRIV
Type of test: functional, cell-based.

The target of another test is D(3) dopamine receptor (Homo sapiens, UniProt P35462).
D(3) dopamine receptor, sequence (P35462 whole entry): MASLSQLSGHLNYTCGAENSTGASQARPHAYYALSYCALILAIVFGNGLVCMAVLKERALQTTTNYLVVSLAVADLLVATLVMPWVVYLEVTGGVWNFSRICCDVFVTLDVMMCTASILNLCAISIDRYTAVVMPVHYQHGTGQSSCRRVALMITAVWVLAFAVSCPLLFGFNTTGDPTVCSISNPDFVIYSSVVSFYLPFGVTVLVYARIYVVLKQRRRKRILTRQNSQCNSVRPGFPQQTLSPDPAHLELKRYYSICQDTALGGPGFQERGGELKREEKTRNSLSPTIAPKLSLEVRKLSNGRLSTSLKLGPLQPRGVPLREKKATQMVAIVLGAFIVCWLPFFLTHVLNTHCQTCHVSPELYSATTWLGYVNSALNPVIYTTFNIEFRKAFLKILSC
In test [4] the target is cGMP-inhibited 3',5'-cyclic phosphodiesterase 3A (Homo sapiens, UniProt Q14432). Type of test: functional.
cGMP-inhibited 3',5'-cyclic phosphodiesterase 3A, sequence (Q14432 whole entry): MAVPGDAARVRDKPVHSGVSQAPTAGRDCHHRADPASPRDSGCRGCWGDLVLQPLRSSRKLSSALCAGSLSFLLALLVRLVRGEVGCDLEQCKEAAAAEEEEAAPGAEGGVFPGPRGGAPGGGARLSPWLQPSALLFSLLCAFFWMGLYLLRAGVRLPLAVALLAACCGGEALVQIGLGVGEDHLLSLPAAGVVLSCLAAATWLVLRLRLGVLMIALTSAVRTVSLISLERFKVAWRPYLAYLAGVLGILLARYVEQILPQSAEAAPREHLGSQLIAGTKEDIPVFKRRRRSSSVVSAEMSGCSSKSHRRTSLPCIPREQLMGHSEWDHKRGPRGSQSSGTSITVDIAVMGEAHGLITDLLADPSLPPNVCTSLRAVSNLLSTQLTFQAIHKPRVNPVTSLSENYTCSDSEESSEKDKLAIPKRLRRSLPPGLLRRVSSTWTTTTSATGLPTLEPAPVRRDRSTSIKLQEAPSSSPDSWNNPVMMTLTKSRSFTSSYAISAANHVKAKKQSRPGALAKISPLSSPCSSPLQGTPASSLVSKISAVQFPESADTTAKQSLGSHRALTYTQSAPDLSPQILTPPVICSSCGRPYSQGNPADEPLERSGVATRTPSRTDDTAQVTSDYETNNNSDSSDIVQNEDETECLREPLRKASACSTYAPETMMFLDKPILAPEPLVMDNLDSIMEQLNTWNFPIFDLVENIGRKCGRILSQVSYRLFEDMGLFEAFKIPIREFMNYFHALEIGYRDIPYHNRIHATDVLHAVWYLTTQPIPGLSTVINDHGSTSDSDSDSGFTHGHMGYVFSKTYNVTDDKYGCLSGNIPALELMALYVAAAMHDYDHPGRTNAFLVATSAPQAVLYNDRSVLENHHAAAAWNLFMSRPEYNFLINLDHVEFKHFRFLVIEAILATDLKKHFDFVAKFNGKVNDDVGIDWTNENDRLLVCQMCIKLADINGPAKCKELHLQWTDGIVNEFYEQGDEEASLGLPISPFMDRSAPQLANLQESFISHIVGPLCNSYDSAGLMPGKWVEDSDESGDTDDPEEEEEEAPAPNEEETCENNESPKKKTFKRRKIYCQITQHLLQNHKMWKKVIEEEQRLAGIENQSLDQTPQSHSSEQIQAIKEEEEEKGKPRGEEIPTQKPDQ
Test [5] concerns the target Beta-1 adrenergic receptor (Homo sapiens, UniProt P08588). It counts as functional.
In test [6] the target is Growth hormone secretagogue receptor type 1 (Homo sapiens, UniProt Q92847).
Growth hormone secretagogue receptor type 1, sequence (Q92847 whole entry): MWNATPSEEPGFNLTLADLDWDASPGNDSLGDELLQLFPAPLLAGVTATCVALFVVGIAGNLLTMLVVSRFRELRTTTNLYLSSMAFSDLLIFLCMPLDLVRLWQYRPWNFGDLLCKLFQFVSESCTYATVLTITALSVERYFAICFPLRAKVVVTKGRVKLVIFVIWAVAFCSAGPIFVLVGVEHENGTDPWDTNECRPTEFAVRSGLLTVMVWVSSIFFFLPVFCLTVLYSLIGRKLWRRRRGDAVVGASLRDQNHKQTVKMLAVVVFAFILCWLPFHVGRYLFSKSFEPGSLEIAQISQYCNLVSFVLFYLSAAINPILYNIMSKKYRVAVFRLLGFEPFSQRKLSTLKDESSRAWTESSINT
Another test addresses T5, Adenosine receptor A3 (Homo sapiens, UniProt P0DMS8).
T5 sequence (P0DMS8 whole entry): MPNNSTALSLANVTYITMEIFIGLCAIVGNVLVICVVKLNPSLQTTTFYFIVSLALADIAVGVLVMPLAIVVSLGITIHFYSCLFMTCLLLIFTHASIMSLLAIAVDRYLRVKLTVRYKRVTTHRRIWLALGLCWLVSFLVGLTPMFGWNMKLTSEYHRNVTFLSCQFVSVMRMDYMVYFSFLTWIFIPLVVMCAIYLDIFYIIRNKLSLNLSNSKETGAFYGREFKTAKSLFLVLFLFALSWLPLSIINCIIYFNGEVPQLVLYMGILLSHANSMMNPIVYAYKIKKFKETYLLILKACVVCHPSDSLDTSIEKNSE

Test [7] deals with 5-hydroxytryptamine receptor 2B (Homo sapiens, UniProt P41595). It counts as functional, cell-based.
5-hydroxytryptamine receptor 2B, sequence (P41595 whole entry): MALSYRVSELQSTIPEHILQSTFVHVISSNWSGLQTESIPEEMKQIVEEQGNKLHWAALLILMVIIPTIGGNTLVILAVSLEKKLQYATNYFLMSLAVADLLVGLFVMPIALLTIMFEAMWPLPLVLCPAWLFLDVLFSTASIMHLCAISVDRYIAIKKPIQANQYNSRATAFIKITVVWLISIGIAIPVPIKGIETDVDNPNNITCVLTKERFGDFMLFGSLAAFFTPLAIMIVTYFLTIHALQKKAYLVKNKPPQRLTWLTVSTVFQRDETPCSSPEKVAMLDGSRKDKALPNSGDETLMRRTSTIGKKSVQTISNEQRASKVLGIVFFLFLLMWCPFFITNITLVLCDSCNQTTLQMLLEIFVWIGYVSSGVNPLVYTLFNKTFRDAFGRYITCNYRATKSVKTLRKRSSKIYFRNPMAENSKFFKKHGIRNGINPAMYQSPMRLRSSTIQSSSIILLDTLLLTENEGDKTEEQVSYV
Also: assay procedure not described here.

Beta-1 adrenergic receptor, sequence (P08588 whole entry): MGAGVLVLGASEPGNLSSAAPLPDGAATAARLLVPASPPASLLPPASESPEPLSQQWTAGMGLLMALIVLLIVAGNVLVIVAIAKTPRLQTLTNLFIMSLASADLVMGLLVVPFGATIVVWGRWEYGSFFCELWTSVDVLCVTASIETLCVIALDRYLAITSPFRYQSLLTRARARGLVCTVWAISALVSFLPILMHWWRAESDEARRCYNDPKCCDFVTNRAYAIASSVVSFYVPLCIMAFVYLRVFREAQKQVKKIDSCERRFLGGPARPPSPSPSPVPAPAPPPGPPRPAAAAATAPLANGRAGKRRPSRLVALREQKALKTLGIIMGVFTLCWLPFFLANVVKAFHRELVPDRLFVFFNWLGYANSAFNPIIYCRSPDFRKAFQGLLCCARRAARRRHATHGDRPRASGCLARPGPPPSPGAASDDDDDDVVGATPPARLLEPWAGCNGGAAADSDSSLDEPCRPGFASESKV

One may read the AC50 as the concentration at which the activity in the assay is half-maximal. The low end stands for greater potency, the high end for weaker potency. In the case of `CCOC(=O)C(C)(C)Oc1ccc(Cl)cc1` [CLOFIBRATE], the AC50 on B2 bradykinin receptor was above 30 µM; in [1], above 30 µM; in test [2], above 30 µM; in test [3], above 10 µM; on D(3) dopamine receptor, above 30 µM; in test [4] it was above 30 µM. For the same compound, the AC50 in [5] was above 10 µM; in test [6], above 30 µM; on Adenosine receptor A3, above 30 µM; in [7] it was above 10 µM.
As to `CCC(=O)O[C@](Cc1ccccc1)(c1ccccc1)[C@H](C)CN(C)C` [PROPOXYPHENE], the half-maximal activity concentration (AC50) at B2 bradykinin receptor was above 30 µM; in test [1], above 30 µM; in test [2], above 30 µM; in test [3], above 10 µM; at D(3) dopamine receptor, above 10 µM; in [4], above 30 µM. The AC50 in [5] was above 10 µM; in test [6], above 30 µM; on Adenosine receptor A3, above 30 µM; in [7] it was above 10 µM.
Take `CC(C)N(CCCCOCC(=O)O)c1cnc(-c2ccccc2)c(-c2ccccc2)n1`: the AC50 is above 10 µM on B2 bradykinin receptor; 17 µM in test [1]; above 30 µM in test [2]; above 30 µM in [3]; above 30 µM on D(3) dopamine receptor; above 30 µM in test [4]. Moreover, the concentration at half-maximal activity (AC50) is above 30 µM in test [5], above 30 µM in test [6], 10.1 µM on Adenosine receptor A3 and above 30 µM in test [7].
With `c1ccc(C2(N3CCCCC3)CCCCC2)cc1` [PHENCYCLIDINE], the AC50 (on B2 bradykinin receptor; in [1]; in [2]; in [3]; at D(3) dopamine receptor; in [4]) was above 30 µM in each case. For the same compound, the half-maximal activity concentration (AC50) (in [5]; in test [6]; at Adenosine receptor A3; in [7]) was above 30 µM each time.
`O=C(NCCO[N+](=O)[O-])c1cccnc1` [NICORANDIL]: the AC50 (at B2 bradykinin receptor; in test [1]; in test [2]; in test [3]; at D(3) dopamine receptor; in test [4]) was above 30 µM in each case. Moreover, the concentration at half-maximal activity (AC50) (in test [5]; in test [6]; on Adenosine receptor A3; in test [7]) was above 30 µM each time.
As to `CCCN1CCCC[C@H]1C(=O)Nc1c(C)cccc1C` [ROPIVACAINE], the half-maximal activity concentration (AC50) (on B2 bradykinin receptor; in [1]; in [2]; in test [3]; on D(3) dopamine receptor; in test [4]) was above 30 µM throughout. The AC50 (in test [5]; in test [6]; on Adenosine receptor A3; in [7]) was above 30 µM throughout.
Turning to `C[C@]12C/C(=C/O)C(=O)C[C@@H]1CC[C@@H]1[C@@H]2CC[C@@]2(C)[C@H]1CC[C@]2(C)O` [OXYMETHOLONE], the AC50 is above 30 µM at B2 bradykinin receptor; 15 µM in test [1]; above 30 µM in test [2]; above 30 µM in test [3]; above 30 µM at D(3) dopamine receptor; above 30 µM in [4]. In addition, the AC50 in test [5] is above 30 µM; in test [6], above 30 µM; at Adenosine receptor A3, 8.2 µM; in test [7] it was above 30 µM.
Take `CCc1cc2c(s1)-n1c(C)nnc1CN=C2c1ccccc1Cl` [ETIZOLAM]: the AC50 (on B2 bradykinin receptor; in test [1]; in test [2]; in test [3]; on D(3) dopamine receptor; in test [4]) was above 30 µM throughout. Moreover, the AC50 (in test [5]; in test [6]; at Adenosine receptor A3; in test [7]) was above 30 µM throughout.
On to `Cc1cc(=O)n(-c2ccccc2)n1C` [ANTIPYRINE], for which the AC50 at B2 bradykinin receptor is above 30 µM; in test [1], above 30 µM; in test [2], above 30 µM; in test [3], above 10 µM; on D(3) dopamine receptor, above 10 µM; in [4], above 30 µM. Besides, the concentration at half-maximal activity (AC50) in test [5] was above 10 µM; in test [6], above 30 µM; on Adenosine receptor A3, above 30 µM; in test [7] it was above 10 µM.
On to `O=C1Nc2ccc(Cl)cc2C(c2ccccc2Cl)=NC1O` (stereo not given) [LORAZEPAM], for which the AC50 is above 30 µM on B2 bradykinin receptor; above 30 µM in [1]; above 30 µM in [2]; above 10 µM in test [3]; above 10 µM on D(3) dopamine receptor; above 30 µM in test [4]. For the same compound, the AC50 was above 10 µM in [5], above 30 µM in [6], above 30 µM on Adenosine receptor A3 and above 10 µM in test [7].
`CCOC(=O)c1ncn2c1CN(C)C(=O)c1cc(F)ccc1-2` [FLUMAZENIL]: the AC50 (at B2 bradykinin receptor; in [1]; in [2]; in [3]; at D(3) dopamine receptor; in test [4]) was above 30 µM in each case. Moreover, the AC50 (in test [5]; in test [6]; on Adenosine receptor A3; in test [7]) was above 30 µM each time.
For `CO/N=C(\C(=O)N[C@@H]1C(=O)N2C(C(=O)O)=C(CSc3nc(=O)c(=O)[nH]n3C)CS[C@H]12)c1csc(N)n1` [CEFTRIAXONE], the AC50 (at B2 bradykinin receptor; in test [1]; in [2]; in test [3]; at D(3) dopamine receptor; in test [4]) was above 30 µM each time. For the same compound, the AC50 (in [5]; in [6]; on Adenosine receptor A3; in test [7]) was above 30 µM in each case.
On to `Cc1ccnc2c1NC(=O)c1cccnc1N2C1CC1` [NEVIRAPINE], for which the AC50 was above 30 µM on B2 bradykinin receptor; above 30 µM in test [1]; above 30 µM in test [2]; above 10 µM in test [3]; above 10 µM at D(3) dopamine receptor; 4.5 µM in [4]. Besides, the AC50 in test [5] is above 10 µM; in test [6], above 30 µM; on Adenosine receptor A3, 1.02 µM; in [7] it was above 10 µM.
Turning to `C[N+]12CCC(CC1)C(OC(=O)C(O)(c1ccccc1)c1ccccc1)C2` (stereo not given), the AC50 (at B2 bradykinin receptor; in [1]; in test [2]; in [3]; at D(3) dopamine receptor; in [4]) was above 30 µM each time. Further, the AC50 (in test [5]; in test [6]; on Adenosine receptor A3; in test [7]) was above 30 µM throughout.
